Values of other authors, collected in patent US20250127900A1, “STABLE PHARMACEUTICAL COMPOSITIONS” (MANKIND PHARMA LTD., priority 2021, published 2025).

Columns and labels:
[1] = for Acceptable intake, EMA: EMA limit; for Acceptable intake, FDA: FDA limit
[2] = in vivo

For CCN(CC)N=O [N-Nitrosodiethylamine], the “Acceptable intake, EMA” value [1] is given as 26.5 ng/day and the “Acceptable intake, FDA” value [1] is given as 26.5 ng/day.

In the case of CC(C)N(N=O)C(C)C [N-Nitrosodiisopropylamine], the “Acceptable intake, EMA” value [1] is given as 26.5 ng/day and the “Acceptable intake, FDA” value [1] is given as 26.5 ng/day.

In the case of CN(C)N=O [N-Nitrosodimethylamine], the LD50 [2] is given as 10 mg/kg, the “Acceptable intake, EMA” value [1] is given as 96 ng/day and the “Acceptable intake, FDA” value [1] is given as 96 ng/day.
